The source made the active and inactive calls. The rule behind the calls is not given here.
Key:
[1] = tested on: PC-3; assay: Induction of cell cycle arrest in human PC3 cells assessed as accumulation at S phase at IC50 incubated for 48 hrs by RNaeA/propidium iodide based flow cytometry analysis (reference value: 33.66 %); type: functional
[2] = tested on: PC-3; assay: Induction of cell cycle arrest in human PC-3 cells assessed as decrease in Cdc2 expression by Western blot analysis; type: functional, cell-based
[3] = tested on: HT-29; assay: Induction of cell cycle arrest in human HT-29 cells assessed as accumulation at S phase at IC50 incubated for 48 hrs by RNaeA/propidium iodide based flow cytometry analysis (reference value: 32.45 %); type: functional
[4] = tested on: DU-145; assay: Induction of apoptosis in human DU-145 cells assessed as increase in caspase-3 level by Western blot assay; type: functional, cell-based
[5] = tested on: DU-145; assay: Induction of apoptosis in human DU-145 cells assessed as necrotic cells incubated for 48 hrs by annexin-V/FITC and propidium iodide staining based flow cytometry analysis (reference value: 0.04 %); type: functional
[6] = tested on: HCT-116; assay: Induction of apoptosis in human HCT-116 cells assessed as increase in cleaved PARP protein expression by Western blot assay; type: functional, cell-based
[7] = tested on: HCT-116; assay: Induction of cell cycle arrest in human HCT-116 cells assessed as reduction in CDK2 expression by Western blot analysis; type: functional, cell-based
[8] = tested on: HCT-116; assay: Induction of cell cycle arrest in human HCT-116 cells assessed as accumulation at sub-G1 phase at IC50 incubated for 48 hrs by RNaeA/propidium iodide based flow cytometry analysis (reference value: 0.67 %); type: functional
[9] = tested on: HT-29; assay: Induction of apoptosis in human HT-29 cells assessed as increase in caspase-3 level by Western blot assay; type: functional, cell-based
[10] = tested on: PC-3; assay: Induction of apoptosis in human PC-3 cells assessed as increase in caspase-3 level by Western blot assay; type: functional, cell-based
[11] = tested on: DU-145; assay: Induction of apoptosis in human DU-145 cells assessed as increase in DNA fragmentation after 48 hrs by ELISA relative to control; type: functional
[12] = tested on: HCT-116; assay: Induction of cell cycle arrest in human HCT-116 cells assessed as increase in Cyclin D1 expression by Western blot analysis; type: functional, cell-based
[13] = tested on: HT-29; assay: Induction of cell cycle arrest at G1 phase in human HT-29 cells assessed as reduction in CDK4 expression by Western blot analysis; type: functional, cell-based
[14] = tested on: HT-29; assay: Induction of cell cycle arrest at G1 phase in human HT-29 cells assessed as reduction in Cyclin E2 expression by Western blot analysis; type: functional, cell-based
[15] = tested on: DU-145; assay: Induction of cell cycle arrest in human DU-145 cells assessed as effect on cyclin B1 expression by Western blot analysis; type: functional, cell-based
[16] = tested on: DU-145; assay: Induction of apoptosis in human DU-145 cells assessed as early apoptotic cells incubated for 48 hrs by annexin-V/FITC and propidium iodide staining based flow cytometry analysis (reference value: 3.27 %); type: functional
[17] = tested on: HCT-116; assay: Induction of cell cycle arrest in human HCT-116 cells assessed as increase in Cyclin E2 expression by Western blot analysis; type: functional, cell-based
[18] = tested on: HT-29; assay: Induction of apoptosis in human HT-29 cells assessed as increase in cleaved PARP protein expression by Western blot assay; type: functional, cell-based
[19] = tested on: DU-145; assay: Induction of cell cycle arrest in human DU-145 cells assessed as increase in p21 expression by Western blot analysis; type: functional, cell-based
[20] = tested on: DU-145; assay: Induction of cell cycle arrest in human DU-145 cells assessed as accumulation at G2 phase at IC50 incubated for 48 hrs by […]/propidium iodide based flow cytometry analysis (reference value: 16.06 %); type: functional
[21] = tested on: PC-3; assay: Induction of apoptosis in human PC-3 cells assessed as early apoptotic cells incubated for 48 hrs by annexin-V/FITC and propidium iodide staining based flow cytometry analysis (reference value: 4.38 %); type: functional
[22] = tested on: PC-3; assay: Induction of cell cycle arrest in human PC-3 cells assessed as increase in p21 expression by Western blot analysis; type: functional, cell-based
[23] = tested on: HT-29; assay: Induction of apoptosis in human HT-29 cells assessed as late apoptotic cells incubated for 48 hrs by annexin-V/FITC and propidium iodide staining based flow cytometry analysis (reference value: 9.52%); type: functional
[24] = tested on: HCT-116; assay: Induction of apoptosis in human HCT-116 cells assessed as viable cells incubated for 48 hrs by annexin-V/FITC and propidium iodide staining based flow cytometry analysis (reference value: […] %); type: functional
[25] = tested on: PC-3; assay: Induction of cell cycle arrest in human PC-3 cells assessed as decrease in cyclin A2 expression by Western blot analysis; type: functional, cell-based
[26] = tested on: HCT-116; assay: Induction of cell cycle arrest in human HCT-116 cells assessed as reduction in CDK6 expression by Western blot analysis; type: functional, cell-based
[27] = tested on: HT-29; assay: Induction of apoptosis in human HT-29 cells assessed as increase in DNA fragmentation after 48 hrs by ELISA relative to control; type: functional
[28] = tested on: PC-3; assay: Induction of cell cycle arrest in human PC3 cells assessed as accumulation at G1 phase at IC50 incubated for 48 hrs by RNaeA/propidium iodide based flow cytometry analysis (reference value: 42.61 %); type: functional
[29] = tested on: HCT-116; assay: Induction of cell cycle arrest in human HCT-116 cells assessed as accumulation at S phase at IC50 incubated for 48 hrs by RNaeA/propidium iodide based flow cytometry analysis (reference value: 30.68 %); type: functional
[30] = tested on: PC-3; assay: Induction of cell cycle arrest in human PC3 cells assessed as accumulation at G2 phase at IC50 incubated for 48 hrs by RNaeA/propidium iodide based flow cytometry analysis (reference value: 23.73 %); type: functional
[31] = tested on: HT-29; assay: Induction of apoptosis in human HT-29 cells assessed as viable cells incubated for 48 hrs by annexin-V/FITC and propidium iodide staining based flow cytometry analysis (reference value: 83.56 %); type: functional
[32] = tested on: PC-3; assay: Induction of cell cycle arrest in human PC-3 cells assessed as decrease in cyclin B1 expression by Western blot analysis; type: functional, cell-based
[33] = tested on: HCT-116; assay: Induction of cell cycle arrest in human HCT-116 cells assessed as accumulation at G1 phase at IC50 incubated for 48 hrs by RNaeA/propidium iodide based flow cytometry analysis (reference value: 51.56 %); type: functional
[34] = tested on: HCT-116; assay: Induction of apoptosis in human HCT-116 cells assessed as necrotic cells incubated for 48 hrs by annexin-V/FITC and propidium iodide staining based flow cytometry analysis (reference value: 7.22 %); type: functional
[35] = tested on: DU-145; assay: Induction of cell cycle arrest in human DU-145 cells assessed as effect on cyclin A2 expression by Western blot analysis; type: functional, cell-based
[36] = tested on: DU-145; assay: Induction of apoptosis in human DU-145 cells assessed as decrease in pro-caspase-3 expression by Western blot assay; type: functional, cell-based

COc1cc(C(=O)/C=C/c2ccc(OCCCNCCCNCCCCN)cc2)cc(OC)c1OC
Activity [1]: 22.17%
Activity [2]: Active
Activity [3]: 26.03%
Activity [4]: Active
Activity [5]: 0.05%
Activity [6]: Active
Activity [7]: Active
Activity [8]: 24.17%
Activity [9]: Active
Activity [10]: Active
fold change (FC) [11]: 4.88
Activity [12]: Active
Activity [13]: Active
Activity [14]: Active
Activity [15]: inactive
Activity [16]: 52.25%
Activity [17]: Active
Activity [18]: Active
Activity [19]: Active
Activity [20]: 34.55%
Activity [21]: 34.25%
Activity [22]: Active
Activity [23]: 31.39%
Activity [24]: 52.13%
Activity [25]: Active
Activity [26]: Active
fold change (FC) [27]: 2.07
Activity [28]: 19.12%
Activity [29]: 14.4%
Activity [30]: 58.17%
Activity [31]: 56.67%
Activity [32]: Active
Activity [33]: 65.67%
Activity [34]: 3.35%
Activity [35]: inactive
Activity [36]: Active
